Consider 8 compounds from ChEMBL document CHEMBL6092152, “Overview of PRMT1 modulators: Inhibitors and degraders” (Eur J Med Chem, 2024).

For assay [1], the target named is T1, Protein arginine N-methyltransferase 1 (Homo sapiens, UniProt Q99873). As to the kind of experiment: Inhibition of 6His-tagged PRMT1 (11 to 353 residues) (unknown origin) extracted from Escherichia coli BL21 (DE3) cells.
Assay [2] deals with T2, Histone-arginine methyltransferase CARM1 (Homo sapiens, UniProt Q86X55).
T2 sequence (Q86X55 whole entry): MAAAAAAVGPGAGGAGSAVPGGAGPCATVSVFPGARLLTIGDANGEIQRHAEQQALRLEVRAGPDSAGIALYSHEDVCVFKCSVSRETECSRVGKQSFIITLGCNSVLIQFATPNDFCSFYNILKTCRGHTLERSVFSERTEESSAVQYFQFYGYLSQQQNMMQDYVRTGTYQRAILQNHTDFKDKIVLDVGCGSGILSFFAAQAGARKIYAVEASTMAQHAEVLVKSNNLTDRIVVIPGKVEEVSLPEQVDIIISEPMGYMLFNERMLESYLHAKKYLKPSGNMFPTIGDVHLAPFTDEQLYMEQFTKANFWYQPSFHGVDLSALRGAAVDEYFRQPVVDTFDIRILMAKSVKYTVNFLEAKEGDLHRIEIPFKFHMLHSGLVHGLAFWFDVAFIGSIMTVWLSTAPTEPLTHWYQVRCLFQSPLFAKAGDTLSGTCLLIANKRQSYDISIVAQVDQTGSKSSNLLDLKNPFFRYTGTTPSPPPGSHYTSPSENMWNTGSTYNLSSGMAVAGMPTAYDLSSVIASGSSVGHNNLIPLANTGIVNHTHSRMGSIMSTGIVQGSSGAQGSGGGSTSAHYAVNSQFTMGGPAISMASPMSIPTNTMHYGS
As to the kind of experiment: Inhibition of PRMT4 (unknown origin).

The target in assay [3] is T3, Protein arginine N-methyltransferase 7 (Homo sapiens, UniProt Q9NVM4).
T3 sequence (Q9NVM4 whole entry): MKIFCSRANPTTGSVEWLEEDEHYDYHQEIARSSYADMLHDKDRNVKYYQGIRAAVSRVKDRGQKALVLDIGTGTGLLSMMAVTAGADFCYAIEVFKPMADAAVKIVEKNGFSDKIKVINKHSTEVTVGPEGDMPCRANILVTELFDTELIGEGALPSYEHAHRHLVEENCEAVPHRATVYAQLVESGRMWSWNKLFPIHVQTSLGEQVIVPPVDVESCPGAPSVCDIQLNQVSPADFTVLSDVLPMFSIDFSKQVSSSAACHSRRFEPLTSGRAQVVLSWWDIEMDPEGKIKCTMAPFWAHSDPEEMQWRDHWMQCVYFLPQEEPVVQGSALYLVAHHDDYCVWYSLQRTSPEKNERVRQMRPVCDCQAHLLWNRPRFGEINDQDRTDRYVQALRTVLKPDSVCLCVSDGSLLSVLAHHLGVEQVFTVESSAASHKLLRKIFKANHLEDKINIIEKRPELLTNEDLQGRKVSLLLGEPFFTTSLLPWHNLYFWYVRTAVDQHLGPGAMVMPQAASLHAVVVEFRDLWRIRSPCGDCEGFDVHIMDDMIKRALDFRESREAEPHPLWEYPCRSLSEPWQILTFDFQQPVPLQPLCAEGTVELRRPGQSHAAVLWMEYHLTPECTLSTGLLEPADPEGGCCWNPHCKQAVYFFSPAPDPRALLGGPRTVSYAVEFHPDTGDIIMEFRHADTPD
As to the kind of experiment: Inhibition of PRMT7 (unknown origin).

Assay [4] addresses Protein arginine N-methyltransferase 5 (Homo sapiens, UniProt O14744). As to the kind of experiment: Inhibition of PRMT5 (unknown origin).
Assay [5] deals with T1, Protein arginine N-methyltransferase 1. As to the kind of experiment: Inhibition of PRMT1 (unknown origin).
Assay [6] shares this target. As to the kind of experiment: Inhibition of His-tagged PRMT1 (unknown origin) extracted from Escherichia coli BL21 (DE3) cells.
Assay [7] has as its target Protein arginine N-methyltransferase 6 (Homo sapiens, UniProt Q96LA8). As to the kind of experiment: Inhibition of PRMT6 (unknown origin).
The test system of a further assay is HCT-116. As to the kind of experiment: Cytotoxicity against human HCT-116 cells assessed as reduction in cell viability. The format is functional, cell-based.
The test system of a further assay is MDA-MB-468. As to the kind of experiment: Cytotoxicity against human MDA-MB-468 cells assessed as reduction in cell viability incubated for 72 hrs by cell-titer blue assay. In kind it is functional, cell-based. As to conditions: MDA-MB-468, 72 h.
The target of assay [8] is T1, Protein arginine N-methyltransferase 1. As to the kind of experiment: Inhibition of human PRMT1 assessed as methyltransferase activity using Histone H4 /H4 (1-15)-Biotin as substrate.

Molecules are shown by their SMILES. pIC50: −log10 of the molar value. *1 amine or outer side, *2 acyl side, *3 side chain or, on linkers, in order; H or OH if unused. Where a SMILES comes first, the peptide text is derived from it. [ ]: non-standard residue; d: D form. X2 = N=C(NCCC[C@H](N[*:1])C(=O)[*:2])NCCC[C@H]1O[C@@H](n2cnc3c(N)ncnc32)[C@H](O)[C@@H]1O; Gly(N-(CH2)3-guanidino) = N=C(N)NCCCNCC(=O)O; X1 = N=C(CCl)NCCCN(CC(=O)[*:2])[*:1]; Gly(N-CH2CH2OH) = O=C(O)CNCCO; Nleu = CC(C)CNCC(=O)O; Nlys = NCCCCNCC(=O)O; Sar = CNCC(=O)O

T1 sequence (Q99873 whole entry, the tested form may be a part): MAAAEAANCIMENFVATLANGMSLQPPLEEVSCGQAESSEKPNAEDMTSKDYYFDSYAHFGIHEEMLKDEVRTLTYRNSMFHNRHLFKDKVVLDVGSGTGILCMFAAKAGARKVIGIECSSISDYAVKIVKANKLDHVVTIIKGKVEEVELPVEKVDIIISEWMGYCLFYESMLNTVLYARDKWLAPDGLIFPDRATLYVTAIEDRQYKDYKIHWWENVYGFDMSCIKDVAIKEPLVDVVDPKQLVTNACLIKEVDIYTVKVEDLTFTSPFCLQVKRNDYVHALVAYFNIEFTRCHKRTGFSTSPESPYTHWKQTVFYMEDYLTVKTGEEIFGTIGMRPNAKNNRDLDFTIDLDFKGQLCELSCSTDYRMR
Sequence of Protein arginine N-methyltransferase 5 (O14744 whole entry): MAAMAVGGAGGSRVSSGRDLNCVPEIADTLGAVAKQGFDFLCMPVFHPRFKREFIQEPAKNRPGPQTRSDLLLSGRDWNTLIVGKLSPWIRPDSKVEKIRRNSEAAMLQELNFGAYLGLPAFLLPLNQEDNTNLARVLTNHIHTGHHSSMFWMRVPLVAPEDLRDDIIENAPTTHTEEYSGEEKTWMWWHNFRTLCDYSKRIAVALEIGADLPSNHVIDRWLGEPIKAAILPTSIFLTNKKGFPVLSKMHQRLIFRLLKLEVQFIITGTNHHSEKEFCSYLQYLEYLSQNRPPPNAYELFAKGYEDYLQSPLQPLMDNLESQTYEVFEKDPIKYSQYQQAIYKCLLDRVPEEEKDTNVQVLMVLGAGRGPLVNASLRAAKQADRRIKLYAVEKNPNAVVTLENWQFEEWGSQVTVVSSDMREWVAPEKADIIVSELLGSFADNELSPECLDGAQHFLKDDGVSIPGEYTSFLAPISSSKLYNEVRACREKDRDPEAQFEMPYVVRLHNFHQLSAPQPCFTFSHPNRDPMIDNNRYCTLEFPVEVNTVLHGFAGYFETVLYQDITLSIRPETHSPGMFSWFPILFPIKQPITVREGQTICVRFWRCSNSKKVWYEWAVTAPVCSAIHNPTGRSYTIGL
Sequence of Protein arginine N-methyltransferase 6 (Q96LA8 whole entry): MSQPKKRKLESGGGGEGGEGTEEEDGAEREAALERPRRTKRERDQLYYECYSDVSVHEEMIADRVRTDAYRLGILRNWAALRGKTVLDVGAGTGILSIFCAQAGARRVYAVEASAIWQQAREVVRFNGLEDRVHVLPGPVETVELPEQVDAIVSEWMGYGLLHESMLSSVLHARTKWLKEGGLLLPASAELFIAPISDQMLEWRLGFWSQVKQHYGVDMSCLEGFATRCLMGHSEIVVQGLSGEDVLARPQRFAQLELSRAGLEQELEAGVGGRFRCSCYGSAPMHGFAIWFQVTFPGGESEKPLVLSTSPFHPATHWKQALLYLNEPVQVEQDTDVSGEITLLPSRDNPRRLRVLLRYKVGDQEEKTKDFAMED

As a reminder, the pIC50 is −log10 of the IC50, conventionally taken in molar units. In [1], `NS(=O)(=O)c1ccc(CCNC/C=C/c2ccccc2)cc1` gave a pIC50 of 4.58. As for `N=C(N)NCCC[C@H](NC(=O)CN)C(=O)N[C@@H](CCCNC(=N)NCCCSC[C@H]1O[C@@H](n2cnc3c(N)ncnc32)[C@H](O)[C@@H]1O)C(N)=O`, the pIC50 was 8.55 in assay [2], 9.40 in assay [3], 9.40 in assay [4] and 5.23 in [5].

As to `O=C1Nc2cnc(Nc3ccc(N4CCC(O)CC4)cc3)nc2N2c3ccccc3C[C@@H]12`, the pIC50 in assay [6] was 6.57. Consider `N=C(NCCCSC[C@H]1O[C@@H](n2cnc3c(N)ncnc32)[C@H](O)[C@@H]1O)NCCC[C@H](N)C(N)=O`, for which the negative logarithm of the IC50 (pIC50) in [5] was 5.52. For the compound `CC(=O)N[C@@H](CO)C(=O)NCC(=O)N[C@@H](CCCNC(=N)NCCC[C@H]1O[C@@H](n2cnc3c(N)ncnc32)[C@H](O)[C@@H]1O)C(=O)NCC(=O)N[C@@H](CCCCN)C(=O)NCC(=O)NCC(=O)N[C@@H](CCCCN)C(N)=O` (Ac-SG[X2]GKGGK-NH2), the figures for the pIC50 in assay [5] and in [7] were 5.27 and 4.96, respectively. Regarding `CC(=O)N(CCO)CC(=O)NCC(=O)N(CCCNC(=N)CCl)CC(=O)NCC(=O)N(CCCCN)CC(=O)NCC(=O)NCC(=O)N(CCCCN)CC(=O)NCC(=O)N(CC(=O)NCC(=O)N(CCCCN)CC(=O)NCC(=O)NCC(=O)N(C)CC(=O)N(CCCCN)CC(N)=O)CC(C)C` (Ac-[Gly(N-CH2CH2OH)]G[X1]G[Nlys]GG[Nlys]G[Nleu]G[Nlys]GG[Sar][Nlys]-NH2), the negative-log IC50 (pIC50) in the assay with HCT-116 was less than 3.30; with MDA-MB-468, less than 3.30; in assay [8], 5.06. In turn, `CC(C)CN(CC(=O)NCC(=O)N(CCCCN)CC(=O)NCC(=O)NCC(=O)N(C)CC(=O)N(CCCCN)CC(N)=O)C(=O)CNC(=O)CN(CCCCN)C(=O)CNC(=O)CNC(=O)CN(CCCCN)C(=O)CNC(=O)CN(CCCNC(=N)N)C(=O)CNC(=O)CNCCO` (H-[Gly(N-CH2CH2OH)]G[Gly(N-(CH2)3-guanidino)]G[Nlys]GG[Nlys]G[Nleu]G[Nlys]GG[Sar][Nlys]-NH2) showed a pIC50 in [5] of 3.40. As for `CC(C)CN(CC(=O)NCC(=O)N(CCCCN)CC(=O)NCC(=O)NCC(=O)N(C)CC(=O)N(CCCCN)CC(N)=O)C(=O)CNC(=O)CN(CCCCN)C(=O)CNC(=O)CNC(=O)CN(CCCCN)C(=O)CNC(=O)CN(CCCNC(=N)CCl)C(=O)CNC(=O)CNCCO` (H-[Gly(N-CH2CH2OH)]G[X1]G[Nlys]GG[Nlys]G[Nleu]G[Nlys]GG[Sar][Nlys]-NH2), the pIC50 in the assay on HCT-116 and in the assay on MDA-MB-468 was less than 3.30 throughout.
